Like-named read-outs stand apart in the source and are kept apart here.
Legend:
[1] = biological target: T1, human AR (Homo sapiens, UniProt P10275); assay: AR antagonism assay: inhibition of transcriptional activation of AR (Probasin-luc reporter, COS-1 cells); type: cell-based; details: compound 10.0 μM, relative luciferase response: 100% for testosterone (no antiandrogenic effect), 0% for complete antagonism; for remaining activity at 10 µM: COS-1, 18 h, read-out: AR antagonism against 100 nM testosterone ± S.D.
T1 construct: expressed in transfected cells; host or cells: COS-1
T1 sequence (P10275 1-920): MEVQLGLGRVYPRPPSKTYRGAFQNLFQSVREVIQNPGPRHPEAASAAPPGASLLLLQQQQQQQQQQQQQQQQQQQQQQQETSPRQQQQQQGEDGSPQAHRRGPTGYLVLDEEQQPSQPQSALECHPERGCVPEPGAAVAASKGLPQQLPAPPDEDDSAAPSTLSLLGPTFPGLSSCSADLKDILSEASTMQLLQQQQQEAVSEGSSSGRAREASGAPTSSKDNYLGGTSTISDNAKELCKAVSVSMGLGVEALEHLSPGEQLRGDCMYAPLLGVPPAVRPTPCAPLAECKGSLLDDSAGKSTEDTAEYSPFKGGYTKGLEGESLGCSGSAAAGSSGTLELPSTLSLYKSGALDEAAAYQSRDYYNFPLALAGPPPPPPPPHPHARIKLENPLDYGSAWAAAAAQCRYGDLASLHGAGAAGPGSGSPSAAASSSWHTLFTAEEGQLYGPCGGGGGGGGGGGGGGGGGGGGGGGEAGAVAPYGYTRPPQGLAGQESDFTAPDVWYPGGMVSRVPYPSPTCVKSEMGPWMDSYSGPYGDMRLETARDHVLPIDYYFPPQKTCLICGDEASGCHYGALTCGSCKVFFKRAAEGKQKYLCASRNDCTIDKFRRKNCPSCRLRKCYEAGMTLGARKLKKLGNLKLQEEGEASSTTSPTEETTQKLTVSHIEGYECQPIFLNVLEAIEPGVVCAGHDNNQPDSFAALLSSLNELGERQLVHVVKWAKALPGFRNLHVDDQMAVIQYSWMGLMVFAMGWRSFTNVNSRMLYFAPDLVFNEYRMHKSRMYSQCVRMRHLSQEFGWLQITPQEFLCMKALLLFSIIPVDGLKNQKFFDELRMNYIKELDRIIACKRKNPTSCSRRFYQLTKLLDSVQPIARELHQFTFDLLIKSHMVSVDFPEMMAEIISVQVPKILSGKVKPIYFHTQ
Experimental: Determination of the Antiandrogen Activity.
Testosterone was bought from Sigma Chemical Co. (St. Louis, Mo.) and hydroxyflutamide from Chemos GmbH. One day before transfection, COS-1 cells (from ATCC) were seeded into 1 ml of DMEM (Dulbecco's modified Eagle medium, Gibco) with 10% dextran-charcoal-treated fetal bovine serum and 0.25% (vol/vol) Penicillin-Streptomycin (Euroclone) at a density of 70×10^3 cells/well. After medium change to DMEM 2.5% FBS, the cells were transfected for 24 hours with 10 ng/well of human AR expression vector pSG5-hAR, 100 ng/well of reporter plasmid Probasin-luc, and 10 ng/well of control plasmid pCMV-β-gal by using the TransIT method (Micrus Bio TransIT LT1, Transfection Reagent). After the transfection, the cells received treatment of test compounds giving final concentration of 10 μM for each compound. In the antagonist test the wells were also treated with 100 nM final concentration of testosterone. After 18 hours, the cells were washed, lysed and assayed for luciferase and normalization for β-galactosidase activities and protein concentrations. The cells were washed with 100 μl of cold phosphate buffered saline (PBS) and lysed with 35 μl 1× Reporter lysis Buffer (Promega) and frozen (−70° C.) for 30 minutes. Cell lysates were placed in 1.5-ml propylene tubes and centrifuged at 13200×g for 5 minutes at room temperature. For β-galactosidase assay 10 μl of supernatant from each cell extract was transferred to a 96-well plate (96 well Elisa Microplates, PS, Microcon) and incubated for 10 minutes at 37° C. with 65 μl of reaction mixture consisting 0.76 μl 100×Mg-buffer, 12.5 μl ONPG (4 mg/ml), and 54.3 μl of sodium-phosphate buffer (pH 7). The reaction was stopped with treatment of 125 μl Na2CO3. For luciferase assay 10 μl of the supernatant was transferred to a 96-well plate (Greiner Microlon lumitrac 200) and treated with 30 μl of luciferase assay substrate solution (Promega Luciferase Assay System E1501). For the study of protein concentrations 5 μl of the supernatant was transferred to a 96-well plate (Elisa Microplates, PS, Microcon) and mixed with 200 μl of Bio-rad protein assay reagent. The luciferase activities were measured with Thermo Luminoscan Ascent scanner and the protein concentrations and β-galactosidase activities with Thermo Labsystem Multiscan Ex scanner. Also blank and control samples were measured. During the maintenance, transfection, and treatment with tested compounds the cells were incubated in humidified atmosphere with 5% carbon dioxide at 37° C.

[2] = biological target: T1, human AR; assay: Competitive AR binding assay against [3H]-R1881 in transiently transfected COS-1 cells; details: compound 13.4 μM, [3H]-R1881 1.34 nM, complete inhibition equals 100%; for inhibition at 13.4 µM: read-out: Inhibition of [3H]-R1881 binding at 1.34 nM ± S.D.
Experimental: Competitive AR Binding Assay.
AR binding was measured by a competitive assay against [^3H]-R1881 (PerkinElmer) in transiently transfected COS-1 cells. One day before transfection, COS-1 cells were seeded into 2 ml of DMEM (Dulbecco's modified Eagle medium, Gipco) with 10% dextran-charcoal-treated fetal bovine serum and 0.25% (vol/vol) Penicillin-Streptomysin (Euroclone) at a density of 140×10^3 cells/well. After medium change to DMEM 2.5% FBS, the cells were transfected for 24 hours with 10 ng/well of human AR expression vector pSG5 hAR by using the TransIT method (Micrus Bio TransIT LT1, Transfection Reagent). After 36 hours, the cells where treated with tested compounds using 10000 fold molarities compared to labelled R1881 (1.34 nM). After 2 hours of incubation at 37° C., the medium was removed. The cells were removed from the wells to 150 μl of 1× phosphate buffered saline (PBS), transferred to Eppendorf tubes and centrifuged at 4° C. using 4000×g for 5 min, and then washed twice with 150 μl of PBS. The cell pellets were dissolved to 50 μl of 0.5M NaOH and incubated for 15 min at 56° C., after which the samples (three replicates for each sample compound) were transferred to liquid twinkle tubes with 3 ml of OptiPhase HiSafe 3 twinkle solution (PerkinElmer) and radioactivity of AR-bound [^3H]-R1881 determined. The results were measured with LKB WALLAC 1214 racbeta equipment. The ability of test compounds to bind AR is reported as reduction in bound radioactivity obtained with 1.34 nM [^3H]-R1881.
The results (% inhibition) were calculated as: % inhibition=100−[100×(averagecompound/average[3H]-R1881)].

Row | Compound | AR antagonism against 100 nM testosterone ± S.D. [1] [%] | inhibition at 13.4 µM ([2]; Table 2) [%] | remaining activity at 10 µM [1] [%] | further results
1 | N#Cc1ccc(C2=NOC3CCCC23)cc1C(F)(F)F (single isomer, unassigned) [Example 85a, 4-(4,5,6,6a-Tetrahydro-3aH-cyclopenta[d]isoxazol-3-yl)-2-trifluoromethyl-benzonitrile] | 44.9 ± 3.6 | 87.6 ± 0.3 |  | 
2 | c1ccc2c(C3=NOC4CCCCC34)cccc2c1 (single isomer, unassigned) [Example 33a, 3-Naphthalen-1-yl-3a,4,5,6,7,7a-hexahydro-benzo[d]-isoxazole] | 40.2 ± 7.1 |  |  | inhibition at 13.4 µM ([2]; Table 1): 68.4 ± 1.9%
3 | O=[N+]([O-])c1ccc(C2=NOC3CCCCCC23)c(C(F)(F)F)c1 (centres unmarked) [Example 42a, 3-(4-Nitro-2-trifluoromethyl-phenyl)-4,5,6,7,8,8a-hexahydro-3aH-cyclohepta[d]isoxazole] |  | 90.5 ± 3.1 | 17.4 ± 1.5 | inhibition at 13.4 µM ([2]; Table 3): 91.4 ± 3.8%
4 | Fc1ccc(C2=NOC3CCCC23)c(C(F)(F)F)c1 (centres unmarked) [Example 20b, 3-(4-Fluoro-2-trifluoromethyl-phenyl)-4,5,6,6a-tetrahydro-3aH-cyclopenta[d]isoxazole] | 37.4 ± 7.3 |  |  | Inhibition of [3H]-R1881 binding at 1.34 nM ± S.D. ([2]; Table 3): 85.3 ± 2.8%
5 | O=[N+]([O-])c1ccc(C2=NOC3CCCCCCC23)c(C(F)(F)F)c1 (centres unmarked) [Example 46b, 3-(4-Nitro-2-trifluoromethyl-phenyl)-3a,4,5,6,7,8,9,9a-octahydro-cycloocta[d]isoxazole] | 2.2 ± 0.8 |  |  | Inhibition of [3H]-R1881 binding at 1.34 nM ± S.D. ([2]; Table 3): 90.4 ± 3.8%
6 | N#Cc1ccc(C2=NOC3CCCCCC23)cc1C(F)(F)F (centres unmarked) [Example 90ab, 4-(4,5,6,7,8,8a-Hexahydro-3aH-cyclohepta[d]isoxazol-3-yl)-2-trifluoromethyl-benzonitrile] |  | 98.7 ± 0.6 | 12.6 ± 0.7 | 
7 | N#Cc1cccc(C2=NOC3CCCCCC23)c1C(F)(F)F (centres unmarked) [Example 95b, 3-(4,5,6,7,8,8a-Hexahydro-3aH-cyclohepta[d]isoxazol-3-yl)-2-trifluoromethyl-benzonitrile] | 19.2 ± 2.9 |  |  | Inhibition of [3H]-R1881 binding at 1.34 nM ± S.D. ([2]; Table 3): 98.1 ± 0.3%
8 | Fc1ccc(C2=NOC3CCCCCCC23)c(C(F)(F)F)c1 (centres unmarked) [Example 44a, 3-(4-Fluoro-2-trifluoromethyl-phenyl)-3a,4,5,6,7,8,9,9a-octahydro-cycloocta[d]isoxazole] |  |  | 19.8 ± 0.5 | inhibition at 13.4 µM ([2]; Table 3): 90.3 ± 2.7%
9 | Fc1ccc(C2=NOC3CCCCCC23)c(C(F)(F)F)c1 (centres unmarked) [Example 40a, 3-(4-Fluoro-2-trifluoromethyl-phenyl)-4,5,6,7,8,8a-hexahydro-3aH-cyclohepta[d]isoxazole] |  | 88.8 ± 3.1 | 28.8 ± 2 | 
10 | Fc1ccc(C2=NOC3CCCCC23)c(C(F)(F)F)c1 (centres unmarked) [Example 36a, 3-(4-Fluoro-2-trifluoromethyl-phenyl)-3a,4,5,6,7,7a-hexahydro-benzo[d]-isoxazole] |  | 84.6 ± 0.7 | 49.7 ± 5.1 | 
11 | Fc1ccc(C2=NOC3CCCC23)c(C(F)(F)F)c1 (centres unmarked) [Example 20a, 3-(4-Fluoro-2-trifluoromethyl-phenyl)-4,5,6,6a-tetrahydro-3aH-cyclopenta[d]isoxazole] |  |  | 23.2 ± 0.5 | inhibition at 13.4 µM ([2]; Table 3): 89.3 ± 3.8%
12 | O=[N+]([O-])c1ccc(C2=NOC3CCCCC23)c(C(F)(F)F)c1 (single isomer, unassigned) [Example 38b, 3-(4-Nitro-2-trifluoromethyl-phenyl)-3a,4,5,6,7,7a-hexahydro-benzo-[d]-isoxazole] | 75.9 ± 3.7 |  |  | Inhibition of [3H]-R1881 binding at 1.34 nM ± S.D. ([2]; Table 1): 90.7 ± 0.5%
13 | Fc1ccc(C2=NOC3CCCCCCC23)c(C(F)(F)F)c1 (centres unmarked) [Example 44b, 3-(4-Fluoro-2-trifluoromethyl-phenyl)-3a,4,5,6,7,8,9,9a-octahydro-cycloocta[d]isoxazole] | 35.6 ± 7.8 |  |  | Inhibition of [3H]-R1881 binding at 1.34 nM ± S.D. ([2]; Table 3): 85.2 ± 3.8%
14 | N#Cc1ccc(C2=NOC3CCCCCCC23)c(C(F)(F)F)c1 (single isomer, unassigned) [Example 93a, 4-(3a,4,5,6,7,8,9,9a-Octahydro-cycloocta[d]isoxazol-3-yl)-3-trifluoromethyl-benzonitrile] | 9.4 ± 0.3 |  |  | inhibition at 13.4 µM ([2]; Table 3): 87.2 ± 2.9%
15 | O=[N+]([O-])c1ccc(C2=NOC3CCCCC23)c(C(F)(F)F)c1 (single isomer, unassigned) [Example 38a, 3-(4-Nitro-2-trifluoromethyl-phenyl)-3a,4,5,6,7,7a-hexahydro-benzo-[d]-isoxazole] | 2.9 ± 0.5 |  |  | inhibition at 13.4 µM ([2]; Table 1): 94.5 ± 0.5%
16 | Clc1ccc(C2=NOC3CCCCC23)cc1 (single isomer, unassigned) [Example 32a, 3-(4-Chloro-phenyl)-3a,4,5,6,7,7a-hexahydro-benzo[d]-isoxazole] | 40.9 ± 2.4 |  |  | Inhibition of [3H]-R1881 binding at 1.34 nM ± S.D. ([2]; Table 1): 30.5 ± 5.4%
17 | N#Cc1ccc(C2=NOC3CCCCCCC23)cc1C(F)(F)F (centres unmarked) [Example 92ab, 4-(3a,4,5,6,7,8,9,9a-Octahydro-cycloocta[d]isoxazol-3-yl)-2-trifluoromethyl-benzonitrile] |  | 85.8 ± 1.3 | 24 ± 1.7 | 
